Measured values: patent US20260374766A1, “METHODS FOR TREATING CANCER” (Antares Therapeutics, Inc., priority 2022, published 2026)
pIC50, pKd: −log10 of the molar value. Like-named read-outs stand apart in the source and are kept apart here.

What was measured:
p53 Y220C = p53 Y220C (Homo sapiens, UniProt P04637, Y220C); assay: Luciferase Reporter Assay (Luc), p53 response element, NClH1299 cells with inducible p53 Y220C; format: cell-based; conditions: luciferase reporter, NClH1299 inducible p53 Y220C, 6 hour; for Emax: 10 uM tool compound as positive control; for AC50: read-out: Luc P53 Y220C AC50
In short: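 24 h dox pre-induction (0.5 ug/mL), then 6 h compound; One-Glo luminescent read.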

H1299 p53 Y220C = assay: Cell Proliferation Assay (CellTiter-Glo, CTG), H1299 p53 Y220C (NClH1299-inducible p53 Y220C); format: cell-based; conditions: Homo sapiens, NCI-H1299, 120 h, CellTiter-Glo, H1299 p53 Y220C, 5 days
In short: (§1)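 Cells seeded at 250-500 per well and exposed to compound for 5 days. Viability read by CellTiter-Glo luminescence after 10 min at room temperature; IC50 calculated. H1299 lines carry Tet-One inducible p53 mutant constructs introduced by lentiviral transduction.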

[1] = target: T1, p53 Y220C mutant protein (amino acid residues 94-293) (Homo sapiens, UniProt P04637, Y220C); assay: Thermal Shift Assay (TSA), dTM; format: binding; conditions: thermal shift; for ΔTm at 10 µM: 10 uM compound, read-out: TSA P53 Y220C dTM (10 uM); for ΔTm at 100 µM: 100 uM compound, read-out: TSA P53 Y220C dTM (100 uM)
T1 construct: p53 Y220C mutant protein (amino acid residues 94-293)
In short: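 Differential scanning fluorimetry with Sypro Orange on 5 μM p53 Y220C residues 94-293, compound tested at 10 μM or 100 μM after 3 hours at 20 °C; buffer 20 mM HEPES, pH7.4, 100 mM NaCl, 1% DMSO.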

[2] = target: T1, p53 Y220C mutant protein (amino acid residues 94-293); assay: Surface Plasmon Resonance (SPR) assay, Kd_kinetic; format: binding; conditions: read-out: SPR P53 Y220C KD kinetic
In short: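 Surface plasmon resonance is run at 16 or 20 °C in 50 mM Tris pH 7.5 containing 100 mM NaCl, 1 mM DTT, 0.01% Brij35, 0.05% Tween-20 and 1% DMSO. Association and dissociation data are fitted to a 1:1 model.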

NUGC3 p53 Y220C = assay: Cell Proliferation Assay (CellTiter-Glo, CTG), NUGC3 p53 Y220C; format: cell-based; conditions: Homo sapiens, NUGC-3, 120 h, CellTiter-Glo, NUGC3 p53 Y220C, 5 days
In short: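 Tet-One inducible p53 Y220C or R273H constructs were stably introduced into NCI-H1299 by lentiviral transduction; NUGC3 was used as is. Cells (250-500 per well) were exposed to compound for 5 days, then CellTiter-Glo was added for 10 min at room temperature and IC50 was calculated from luminescence.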

H1299 p53 R273H = assay: Cell Proliferation Assay (CellTiter-Glo, CTG), H1299 p53 R273H (NClH1299-inducible p53 R273H); format: cell-based; conditions: Homo sapiens, NCI-H1299, 120 h, CellTiter-Glo, H1299 p53 R273H, 5 days
In short: as §1

| Compound | Emax (p53 Y220C) [%] | AC50 (p53 Y220C) [nM] | pIC50 (H1299 p53 Y220C) | ΔTm at 10 µM [1] [°C] | ΔTm at 100 µM [1] [°C] | pKd ([2]; SPR, kinetic KD, p53 Y220C) | pIC50 (NUGC3 p53 Y220C) | pIC50 (H1299 p53 R273H) | pKd [2] |
| --- | --- | --- | --- | --- | --- | --- | --- | --- | --- |
| COc1cc(S(C)(=O)=O)ccc1NCC#Cc1nc2c(N[C@@H]3C[C@H]4CC[C@H](N4)[C@@H]3F)cccn2c1SC(F)(F)F [Example 131] | 70 to 80 | < 750 | > 6.12 | ≥ 10 | ≥ 10 | > 8.00 | > 6.12 | 5.10 to 5.30 |  |
| CNC(=O)c1ccc(NCC#Cc2cc3c(N[C@@H]4CCN(C)C[C@@H]4F)cccn3c2SC(F)F)c(OC)c1 [Example 135, 4-[(3-{3-[(difluoromethyl)sulfanyl]-8-{[(3S,4R)-3-fluoro-1-methylpiperidin-4-yl]amino}indolizin-2-yl}prop-2-yn-1-yl)amino]-3-methoxy-N-methylbenzamide] | > 90 | < 750 | > 6.12 | ≥ 10 |  | > 8.00 | > 6.12 | 5.00 to 5.10 |  |
| CNC(=O)c1cnc(NCC#Cc2nc3c(N[C@@H]4CCN(C)C[C@@H]4F)cccn3c2SC(F)(F)F)c(OC)c1 [Example 136] | 70 to 80 | 1500 to 3000 | < 5.52 | 5 to 10 | ≥ 10 | > 8.00 | < 5.52 | 5.00 to 5.10 |  |
| COc1ccc(C(N)=O)cc1NCC#Cc1nc2c(N[C@@H]3CCN(C)C[C@@H]3F)cccn2c1SC(F)(F)F [Example 138] | 80 to 90 | < 750 | > 6.12 | ≥ 10 | ≥ 10 | > 8.00 | > 6.12 | 5.00 to 5.10 |  |
| CNC(=O)c1ccc(NCC#Cc2cn3c(N[C@@H]4CCN(C)C[C@@H]4F)cccc3c2SC(F)(F)F)c(OC)c1 [Example 139, 4-{[3-(5-{[(3S,4R)-3-fluoro-1-methylpiperidin-4-yl]amino}-1-[(trifluoromethyl)sulfanyl]indolizin-2-yl)prop-2-yn-1-yl]amino}-3-methoxy-N-methylbenzamide] | > 90 | < 750 | > 6.12 | ≥ 10 |  | > 8.00 | > 6.12 | 5.10 to 5.30 |  |
| COc1ncc(C(N)=O)cc1NCC#Cc1nc2c(N[C@@H]3CCN(C)C[C@@H]3F)cccn2c1SC(F)(F)F [Example 140] | 80 to 90 | < 750 | > 6.12 | ≥ 10 |  | > 8.00 | > 6.12 | > 5.30 |  |
| CNC(=O)c1cnc(OC)c(NCC#Cc2nc3c(N[C@@H]4CCN(C)C[C@@H]4F)cccn3c2SC(F)(F)F)c1 [Example 141] | 80 to 90 | < 750 | > 6.12 | ≥ 10 | ≥ 10 | > 8.00 | > 6.12 | ≤ 5.00 |  |
| CNC(=O)c1cncc(NCC#Cc2nc3c(N[C@@H]4CCN(C)C[C@@H]4F)cccn3c2SC(F)(F)F)c1 [Example 142] | < 70 | 750 to 1500 | 5.82 to 6.12 | ≥ 10 | ≥ 10 | > 8.00 | > 6.12 | ≤ 5.00 |  |
| COc1ccc(C(=O)N2CCC2)cc1NCC#Cc1nc2c(N[C@@H]3CCN(C)C[C@@H]3F)cccn2c1SC(F)(F)F [Example 144] | 80 to 90 | 750 to 1500 | 5.52 to 5.82 | 5 to 10 | ≥ 10 |  | 5.82 to 6.12 | ≤ 5.00 | > 8.00 |
| COc1ccc(C(=O)NC(C)C)cc1NCC#Cc1nc2c(N[C@@H]3CCN(C)C[C@@H]3F)cccn2c1SC(F)(F)F [Example 145] | 80 to 90 | < 750 | > 6.12 | ≥ 10 | ≥ 10 | > 8.00 | > 6.12 | ≤ 5.00 |  |
| CNC(=O)c1ccc(NCC#Cc2nc3c(N[C@@H]4CN(C)CC[C@@H]4F)cccn3c2SC(F)(F)F)c(OC)c1 [Example 146] | 70 to 80 | < 750 | > 6.12 | ≥ 10 | ≥ 10 | > 8.00 | > 6.12 | 5.10 to 5.30 |  |
| CNC(=O)c1ccc(NCC#Cc2nc3c(N[C@H]4CN(C)CC[C@@H]4F)cccn3c2SC(F)(F)F)c(OC)c1 [Example 147] | > 90 | < 750 | > 6.12 | ≥ 10 | ≥ 10 | > 8.00 | > 6.12 | 5.00 to 5.10 |  |
| CNC(=O)c1cc(NCC#Cc2nc3c(N[C@@H]4CCN(C)C[C@@H]4F)cccn3c2SC(F)(F)F)c(OC)cn1 [Example 148] | 70 to 80 | < 750 | > 6.12 | ≥ 10 | ≥ 10 | > 8.00 | > 6.12 | ≤ 5.00 |  |
| CNC(=O)c1cccc(NCC#Cc2nc3c(N[C@@H]4CCN(C)C[C@@H]4F)cccn3c2SC(F)(F)F)c1 [Example 149] | 80 to 90 | < 750 | > 6.12 | ≥ 10 | ≥ 10 |  | > 6.12 | ≤ 5.00 | > 8.00 |
| COc1cc2c(cc1NCC#Cc1nc3c(N[C@@H]4CCN(C)C[C@@H]4F)cccn3c1SC(F)(F)F)C(=O)NC2 [Example 151] | > 90 | < 750 | > 6.12 | ≥ 10 |  | > 8.00 | > 6.12 | 5.10 to 5.30 |  |
| CNC(=O)c1ccc(OC)c(NCC#Cc2nc3c(N[C@@H]4CNC[C@@H]4F)cccn3c2SC(F)(F)F)c1 [Example 152] | 70 to 80 | < 750 | > 6.12 | ≥ 10 | ≥ 10 | > 8.00 | > 6.12 | ≤ 5.00 |  |
| CNC(=O)c1ccc(OC)c(NCC#Cc2nc3c(N[C@@H]4CN(C)C[C@@H]4F)cccn3c2SC(F)(F)F)c1 [Example 153] | 80 to 90 | < 750 | > 6.12 | ≥ 10 | ≥ 10 | > 8.00 | > 6.12 | ≤ 5.00 |  |
